Experimental data from patent US8759301B2, “Gene fusion targeted therapy” (The Regents of The University of Michigan, priority 2010, dated 2014).
“Also recorded” adds a separate entry of the source. Like-named read-outs stand apart in the source and are kept apart here.

Columns and labels:
AR protein = assay: Immunoblot of AR protein in VCaP cells; assay type: cell-based
Description: VCaP cells grown in DMEMglutamax (Invitrogen, Carlsbad, Calif.) supplemented with 10% FBS to 80% confluence. Cells were harvested with or without formaldehyde crosslinking, and nuclei were isolated subsequently. After washing with TBS twice, nuclei were lysed and sonicated in RIPA buffer containing protease inhibitors (Roche applied science, Indianapolis, Ind.). […] Mouse monoclonal anti-AR antibody (AR441) from Labvision (Thermo scientific, Fremont, Calif.) was used for Western experiment.

AR [1] = molecular target: AR (Homo sapiens, UniProt P10275, T878A); conditions: for number of AR binding sites: LNCaP R1881-treated
AR mRNA = assay: Quantitative PCR of AR transcript in VCaP cells; assay type: cell-based
Procedure: All PCR experiments were performed in triplicates.

AR [2] = molecular target: AR (Homo sapiens, UniProt P10275); conditions: VCaP, R1881 treated (10 nM, 16 hr, hormone deprived)
Procedure: For ERG ChIP, LNCaP, VCaP, RWPE+ERG, and RWPE+GUS cells grown in corresponding regular medium were used.
ChIP samples were prepared for sequencing using the Genomic DNA sample prep kit (Illumina) following manufacturers protocols. ChIP-Sequencing was performed using Illumina Genome Analyzer according to standard manufacturer's procedures. The raw sequencing image data were analyzed by the Illumina analysis pipeline, aligned to the unmasked human reference genome (NCBI v36, hg18) using the ELAND software (Illumina) to generate sequence reads of 25-32 bps.
It was first counted how many uniquely mapped reads are there in each sample and the ratio of the two counts was used as the normalizing factor to bring the total number of useable reads to the same level in both samples. Next each uniquely mapped read was extended directionally to form a 200 bp hypothetical DNA fragment (HDF) in each sample. 200 is assumed to be the average length of size-selected DNA pieces during sample preparation (175-225 bp).
Under the null hypothesis of no enrichment in the stimulated sample versus unstimulated samples, reads from both samples are assumed to land on the genome following the same Poisson distribution (after corrected for the read counts in the unstimulated sample). […] The probability of observing the read difference between two samples in each coverage region was calculated numerically. […]

AR (Homo sapiens, UniProt P10275, T878A), sequence (P10275 whole entry T878A): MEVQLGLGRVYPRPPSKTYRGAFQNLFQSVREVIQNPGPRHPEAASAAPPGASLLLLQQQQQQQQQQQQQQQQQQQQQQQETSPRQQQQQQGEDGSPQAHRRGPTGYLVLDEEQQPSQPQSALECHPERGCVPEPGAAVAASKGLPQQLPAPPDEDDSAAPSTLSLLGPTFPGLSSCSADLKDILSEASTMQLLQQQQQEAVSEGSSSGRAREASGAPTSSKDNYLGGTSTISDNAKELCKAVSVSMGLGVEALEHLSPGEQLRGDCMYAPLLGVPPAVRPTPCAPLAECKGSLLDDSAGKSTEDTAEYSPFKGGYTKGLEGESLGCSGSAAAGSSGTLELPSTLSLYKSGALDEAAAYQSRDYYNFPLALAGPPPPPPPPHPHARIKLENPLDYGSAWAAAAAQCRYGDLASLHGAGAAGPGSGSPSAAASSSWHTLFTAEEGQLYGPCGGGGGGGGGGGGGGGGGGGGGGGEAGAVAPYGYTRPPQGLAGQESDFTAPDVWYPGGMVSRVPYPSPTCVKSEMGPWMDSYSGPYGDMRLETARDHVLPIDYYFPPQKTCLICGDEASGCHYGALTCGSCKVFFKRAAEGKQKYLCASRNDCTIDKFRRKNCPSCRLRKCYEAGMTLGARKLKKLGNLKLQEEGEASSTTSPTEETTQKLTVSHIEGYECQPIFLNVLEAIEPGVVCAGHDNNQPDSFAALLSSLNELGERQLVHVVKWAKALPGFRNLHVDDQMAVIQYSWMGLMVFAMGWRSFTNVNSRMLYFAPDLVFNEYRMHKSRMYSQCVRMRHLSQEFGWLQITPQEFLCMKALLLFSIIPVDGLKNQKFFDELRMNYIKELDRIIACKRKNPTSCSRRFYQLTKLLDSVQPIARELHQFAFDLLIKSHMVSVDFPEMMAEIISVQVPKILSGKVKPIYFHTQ
AR (Homo sapiens, UniProt P10275), sequence (P10275 whole entry): as the sequence (P10275 whole entry T878A) above, with A878T counted along it

C[C@]1(O)CC[C@H]2[C@@H]3CCC4=CC(=O)CCC4=C3C=C[C@@]21C [R1881, methyltrienolone]
AR protein expression (AR protein): inhibits
number of AR binding sites (AR [1]; distance to TSS 7 kb): 145
number of AR binding sites (AR [1]; distance to TSS 8 kb): 148
number of AR binding sites (AR [1]; distance to TSS 9 kb): 139
number of AR binding sites (AR [1]; distance to TSS 10 kb): 117
number of AR binding sites (AR [1]; distance to TSS 11 kb): 120
number of AR binding sites (AR [1]; distance to TSS 12 kb): 123
number of AR binding sites (AR [1]; distance to TSS 13 kb): 134
number of AR binding sites (AR [1]; distance to TSS 14 kb): 126
number of AR binding sites (AR [1]; distance to TSS 15 kb): 137
number of AR binding sites (AR [1]; distance to TSS 16 kb): 114
number of AR binding sites (AR [1]; distance to TSS 17 kb): 109
number of AR binding sites (AR [1]; distance to TSS 18 kb): 107
number of AR binding sites (AR [1]; distance to TSS 19 kb): 109
number of AR binding sites (AR [1]; distance to TSS 20 kb): 97
number of AR binding sites (AR [1]; distance to TSS 21 kb): 97
number of AR binding sites (AR [1]; distance to TSS 22 kb): 98
number of AR binding sites (AR [1]; distance to TSS 23 kb): 100
number of AR binding sites (AR [1]; distance to TSS 24 kb): 99
number of AR binding sites (AR [1]; distance to TSS 25 kb): 105
number of AR binding sites (AR [1]; distance to TSS 26 kb): 105
number of AR binding sites (AR [1]; distance to TSS 27 kb): 86
number of AR binding sites (AR [1]; distance to TSS 28 kb): 90
number of AR binding sites (AR [1]; distance to TSS 29 kb): 76
number of AR binding sites (AR [1]; distance to TSS 30 kb): 78
number of AR binding sites (AR [1]; distance to TSS 31 kb): 101
number of AR binding sites (AR [1]; distance to TSS 32 kb): 86
number of AR binding sites (AR [1]; distance to TSS 33 kb): 94
number of AR binding sites (AR [1]; distance to TSS 34 kb): 79
number of AR binding sites (AR [1]; distance to TSS 35 kb): 68
number of AR binding sites (AR [1]; distance to TSS 36 kb): 79
number of AR binding sites (AR [1]; distance to TSS 37 kb): 88
number of AR binding sites (AR [1]; distance to TSS 38 kb): 72
number of AR binding sites (AR [1]; distance to TSS 39 kb): 57
number of AR binding sites (AR [1]; distance to TSS 40 kb): 65
number of AR binding sites (AR [1]; distance to TSS 41 kb): 76
number of AR binding sites (AR [1]; distance to TSS 42 kb): 65
number of AR binding sites (AR [1]; distance to TSS 43 kb): 73
number of AR binding sites (AR [1]; distance to TSS 44 kb): 58
number of AR binding sites (AR [1]; distance to TSS 45 kb): 69
number of AR binding sites (AR [1]; distance to TSS 46 kb): 56
number of AR binding sites (AR [1]; distance to TSS 47 kb): 53
number of AR binding sites (AR [1]; distance to TSS 48 kb): 55
number of AR binding sites (AR [1]; distance to TSS 49 kb): 61
number of AR binding sites (AR [1]; distance to TSS 50 kb): 77
number of AR binding sites (AR [1]; distance to TSS 51 kb): 50
number of AR binding sites (AR [1]; distance to TSS 52 kb): 54
number of AR binding sites (AR [1]; distance to TSS 53 kb): 61
number of AR binding sites (AR [1]; distance to TSS 54 kb): 56
number of AR binding sites (AR [1]; distance to TSS 55 kb): 41
number of AR binding sites (AR [1]; distance to TSS 56 kb): 55
number of AR binding sites (AR [1]; distance to TSS 57 kb): 59
number of AR binding sites (AR [1]; distance to TSS 58 kb): 60
number of AR binding sites (AR [1]; distance to TSS 59 kb): 58
number of AR binding sites (AR [1]; distance to TSS 60 kb): 43
number of AR binding sites (AR [1]; distance to TSS 61 kb): 36
number of AR binding sites (AR [1]; distance to TSS 62 kb): 49
number of AR binding sites (AR [1]; distance to TSS 63 kb): 40
number of AR binding sites (AR [1]; distance to TSS 64 kb): 52
number of AR binding sites (AR [1]; distance to TSS 65 kb): 50
number of AR binding sites (AR [1]; distance to TSS 66 kb): 39
number of AR binding sites (AR [1]; distance to TSS 67 kb): 37
number of AR binding sites (AR [1]; distance to TSS 68 kb): 47
number of AR binding sites (AR [1]; distance to TSS 69 kb): 47
number of AR binding sites (AR [1]; distance to TSS 70 kb): 45
number of AR binding sites (AR [1]; distance to TSS 71 kb): 43
number of AR binding sites (AR [1]; distance to TSS 72 kb): 43
number of AR binding sites (AR [1]; distance to TSS 73 kb): 57
number of AR binding sites (AR [1]; distance to TSS 74 kb): 37
number of AR binding sites (AR [1]; distance to TSS 75 kb): 34
number of AR binding sites (AR [1]; distance to TSS 76 kb): 39
number of AR binding sites (AR [1]; distance to TSS 77 kb): 48
number of AR binding sites (AR [1]; distance to TSS 78 kb): 31
number of AR binding sites (AR [1]; distance to TSS 79 kb): 37
number of AR binding sites (AR [1]; distance to TSS 80 kb): 36
number of AR binding sites (AR [1]; distance to TSS 81 kb): 35
number of AR binding sites (AR [1]; distance to TSS 82 kb): 49
number of AR binding sites (AR [1]; distance to TSS 83 kb): 39
number of AR binding sites (AR [1]; distance to TSS 84 kb): 32
number of AR binding sites (AR [1]; distance to TSS 85 kb): 39
number of AR binding sites (AR [1]; distance to TSS 86 kb): 40
number of AR binding sites (AR [1]; distance to TSS 87 kb): 31
number of AR binding sites (AR [1]; distance to TSS 88 kb): 34
number of AR binding sites (AR [1]; distance to TSS 89 kb): 33
number of AR binding sites (AR [1]; distance to TSS 90 kb): 33
number of AR binding sites (AR [1]; distance to TSS 91 kb): 41
number of AR binding sites (AR [1]; distance to TSS 92 kb): 28
number of AR binding sites (AR [1]; distance to TSS 93 kb): 36
number of AR binding sites (AR [1]; distance to TSS 94 kb): 27
number of AR binding sites (AR [1]; distance to TSS 95 kb): 28
number of AR binding sites (AR [1]; distance to TSS 96 kb): 35
number of AR binding sites (AR [1]; distance to TSS 97 kb): 27
number of AR binding sites (AR [1]; distance to TSS 98 kb): 27
number of AR binding sites (AR [1]; distance to TSS 99 kb): 34
number of AR binding sites (AR [1]; distance to TSS 100 kb): 19
number of AR binding sites (AR [1]; distance to TSS 101 kb): 24
number of AR binding sites (AR [1]; distance to TSS 102 kb): 23
number of AR binding sites (AR [1]; distance to TSS 103 kb): 28
number of AR binding sites (AR [1]; distance to TSS 104 kb): 30
number of AR binding sites (AR [1]; distance to TSS 105 kb): 20
number of AR binding sites (AR [1]; distance to TSS 106 kb): 31
Enriched Peaks, AR ChIP-Seq (AR [1]; LNCaP, R1881 treated (10 nM, 16 hr, hormone deprived)): 44536
AR mRNA expression (AR mRNA; VCaP cells): inhibits; also recorded: repression
repression of AR transcript (AR mRNA; hormone-deprived VCaP, 24 h after treatment, versus vehicle): over 10 folds
Enriched Peaks, AR ChIP-Seq (AR [2]): 21376
